Test results: patent publication US9023789B2, “Amylin analogs and pharmaceutical compositions thereof” (Novo Nordisk A/S, priority 2012, dated 2015)
Numbered stars: 1 amine (or outer) side, 2 acyl side, 3 side chain; on linkers, the order of the positions; unused ones are H or OH. Bridge positions count the residues as written; N and C are the ends. Side chains are listed from the residue outwards. Peptide text beside a SMILES is read from it. * marks the point of attachment. C20 diacid = O=C(O)CCCCCCCCCCCCCCCCCCC(=O)*; γGlu = O=C(O)[C@H](CCC(=O)[*:2])N[*:1]

How the values were obtained:
[1] = molecular target: T1, human amylin 3(a) receptor (human calcitonin receptor + RAMP-3) in BHK570 cells (Homo sapiens, UniProt O60896+P30988); experiment: ASSAY (II)a functional assay, human amylin receptor (CRE luciferase); type: cell-based
T1 construct: expressed in transfected cells
How it was run: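 Readout is luminescence from a cAMP-responsive CRE-luc reporter, developed with LucLite for 30 min at room temperature. Cells were treated for 3 h at 37 °C in 10% FBS/DMEM buffered with 10 mM Hepes (pH 7.4).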

[2] = molecular target: T2, human amylin receptor (membranes from Amylin 3(a)/CRE-luc cells) (Homo sapiens, UniProt O60896+P30988); experiment: ASSAY (V) binding to the human amylin receptor (SPA, 125I-rat amylin);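 further: competition binding of cell membranes (35 ng/µL) mixed with SPA beads in 384-well plates at 40 µL total volume, read by scintillation counting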
T2 construct: expressed in transfected cells
T2 sequence (P30988 25-474): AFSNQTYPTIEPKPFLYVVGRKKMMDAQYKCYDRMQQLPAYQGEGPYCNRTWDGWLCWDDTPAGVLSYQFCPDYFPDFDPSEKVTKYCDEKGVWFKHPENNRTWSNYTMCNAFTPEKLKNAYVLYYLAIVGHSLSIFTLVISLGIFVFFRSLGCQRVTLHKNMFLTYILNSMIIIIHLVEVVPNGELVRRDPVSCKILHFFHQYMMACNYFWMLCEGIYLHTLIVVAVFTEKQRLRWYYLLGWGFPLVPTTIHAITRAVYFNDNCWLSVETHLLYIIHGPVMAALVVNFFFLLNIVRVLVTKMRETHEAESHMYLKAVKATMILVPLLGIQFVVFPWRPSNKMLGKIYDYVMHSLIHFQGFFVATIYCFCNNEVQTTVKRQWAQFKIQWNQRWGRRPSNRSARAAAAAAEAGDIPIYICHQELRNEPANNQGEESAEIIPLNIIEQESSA
T2 sequence (O60896 24-148 partner): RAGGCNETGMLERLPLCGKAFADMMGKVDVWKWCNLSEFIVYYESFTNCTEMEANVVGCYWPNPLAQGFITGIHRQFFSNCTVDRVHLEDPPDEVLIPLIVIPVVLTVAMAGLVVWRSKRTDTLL

[3] = molecular target: T3, rat amylin receptor (rat calcitonin receptor + rat RAMP 3) (Rattus norvegicus, UniProt P32214+Q9JJ73); experiment: ASSAY (VI) binding to the rat amylin receptor; conditions: for IC50: binding to rat amylin receptor, read-out: rAmylin-R bind IC50
T3 construct: expressed in transfected cells; host or cells: BHK tk'ts 13 (transient, FuGENE 6), membranes
T3 sequence (P32214 25-479 isoform P32214-2 limits assumed): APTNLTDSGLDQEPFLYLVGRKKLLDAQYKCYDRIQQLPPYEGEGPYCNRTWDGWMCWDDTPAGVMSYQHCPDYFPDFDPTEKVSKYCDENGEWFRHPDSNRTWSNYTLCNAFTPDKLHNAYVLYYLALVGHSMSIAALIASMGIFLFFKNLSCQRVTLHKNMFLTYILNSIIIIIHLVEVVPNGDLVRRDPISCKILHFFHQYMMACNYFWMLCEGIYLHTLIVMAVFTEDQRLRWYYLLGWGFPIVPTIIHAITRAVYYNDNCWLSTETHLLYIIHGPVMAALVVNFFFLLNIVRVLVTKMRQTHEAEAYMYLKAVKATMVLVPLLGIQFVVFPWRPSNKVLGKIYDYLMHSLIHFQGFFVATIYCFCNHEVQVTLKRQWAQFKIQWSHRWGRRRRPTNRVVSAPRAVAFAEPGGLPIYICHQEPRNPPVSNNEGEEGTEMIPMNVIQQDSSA
T3 sequence (Q9JJ73 23-147 partner): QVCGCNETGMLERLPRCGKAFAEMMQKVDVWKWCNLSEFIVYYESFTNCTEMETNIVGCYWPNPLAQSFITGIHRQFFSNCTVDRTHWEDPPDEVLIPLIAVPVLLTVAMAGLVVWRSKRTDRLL
How it was run: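 Membranes for this rat amylin receptor binding assay came from BHK tk′ts 13 cells. The cells were transiently transfected with rat calcitonin receptor using the FuGENE® 6 reagent from Roche, as the manufacturer recommends. The cells were collected approximately 48 hours after transfection, and membranes were then prepared.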

rat calcitonin receptor = molecular target: T4, rat calcitonin receptor (Rattus norvegicus, UniProt P32214); experiment: ASSAY (VIII) binding to the rat calcitonin receptor; conditions: Table 7, read-out: rCTR bind IC50
T4 construct: expressed in transfected cells; host or cells: BHK tk'ts 13 (transient, FuGENE 6), membranes
T4 sequence (P32214 25-479 isoform P32214-2 limits assumed): T3 sequence (P32214 25-479 isoform P32214-2 limits assumed)
How it was run: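 Receptor source: membranes from transiently transfected BHK tk′ts 13 cells expressing rat calcitonin receptor, collected roughly 48 hours after transfection.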

[4] = hCTR funct. EC50 divided by hAmylin-R funct. EC50
[5] = hCTR funct. EC50 over hAmylin-R funct. EC50
[6] = human functional selectivity: hCTR funct. EC50 / hAmylin-R funct. EC50
[7] = Table 5, selectivity, hCTR bind IC50 / hAmylin-R bind IC50
[8] = Table 7, human binding selectivity, included for comparison
[9] = Table 7a (preferred compounds), human binding selectivity, included for comparison
[10] = Table 7, rat binding selectivity, rCTR IC50 / rAmylin-R IC50
[11] = Table 7a (preferred compounds), rat binding selectivity, rCTR IC50 / rAmylin-R IC50

Structure (SMILES)	Ratio hCT/hAmylin funct. [1, 4]	Ratio hCT/hAmylin funct. [1, 5]	Ratio hCT/hAmylin funct. [1, 6]	Ratio hCT/hAmylin binding [2, 7]	Ratio hCT/hAmylin binding ([2]; Table 5a, selectivity, hCTR bind IC50 / hAmylin-R bind IC50)	Ratio hCT/hAmylin binding ([2]; Table 5b, selectivity, hCTR bind IC50 / hAmylin-R bind IC50)	Ratio hCT/hAmylin binding ([2]; Table 5c, selectivity, hCTR bind IC50 / hAmylin-R bind IC50)	Ratio hCT/hAmylin binding [2, 8]	Ratio hCT/hAmylin binding [2, 9]	Ratio hCT/hAmylin binding ([2]; ratio of human calcitonin receptor binding IC50 to human amylin receptor binding IC50)	IC50 ([3]; Table 7)	Ratio rCT/rAmylin binding [3, 10]	Ratio rCT/rAmylin binding [3, 11]	Ratio rCT/rAmylin binding ([3]; ratio of rCTR bind IC50 to rAmylin-R bind IC50)	IC50 (rat calcitonin receptor)	Ratio hCT/hAmylin funct. ([1]; hCTR funct. EC50 / hAmylin-R funct. EC50)
CC[C@H](C)[C@H](NC(=O)[C@H](C)NC(=O)CNC(=O)[C@H](Cc1ccccc1)NC(=O)[C@H](CC(N)=O)NC(=O)[C@@H]1CCCN1C(=O)[C@H](CO)NC(=O)[C@H](CO)NC(=O)[C@H](Cc1c[nH]cn1)NC(=O)[C@H](CCCNC(=N)N)NC(=O)[C@H](CC(C)C)NC(=O)[C@H](Cc1ccccc1)NC(=O)[C@H](CCC(=O)O)NC(=O)[C@H](C)NC(=O)[C@H](CC(C)C)NC(=O)[C@H](CCCNC(=N)N)NC(=O)[C@H](CCC(N)=O)NC(=O)[C@@H](NC(=O)[C@H](C)NC(=O)[C@@H]1CSSC[C@H](NC(=O)[C@@H](N)CCCCNC(=O)CC[C@H](NC(=O)CC[C@H](NC(=O)CCCCCCCCCCCCCCCCCCC(=O)O)C(=O)O)C(=O)O)C(=O)N[C@@H](CC(N)=O)C(=O)N[C@@H]([C@@H](C)O)C(=O)N[C@@H](C)C(=O)N[C@@H]([C@@H](C)O)C(=O)N1)[C@@H](C)O)C(=O)N1CCC[C@H]1C(=O)N[C@@H](CO)C(=O)N[C@@H](CO)C(=O)N[C@H](C(=O)N[C@@H](CC(N)=O)C(=O)N[C@H](C(=O)NCC(=O)N1CCC[C@H]1C(=O)N[C@@H](Cc1c[nH]cn1)C(=O)N[C@H](C(=O)N[C@@H](Cc1ccc(O)cc1)C(N)=O)[C@@H](C)O)C(C)C)[C@@H](C)O [Example 124] (H-K([γGlu-γGlu-C20 diacid])CNTATCATQRLAEFLRHSSPNFGAIPSSTNVGPHTY-NH2; disulfide 2-7 (inferred))	16.4	16.4	16.4	27.3	27.3	27.3	27.3	27.3	27.3	27.3	0.288 nM	73.0	73.0	73.0	21 nM	–
CC[C@H](C)[C@H](NC(=O)[C@H](C)NC(=O)CNC(=O)[C@H](Cc1ccccc1)NC(=O)[C@H](CC(N)=O)NC(=O)[C@@H]1CCCN1C(=O)[C@H](CO)NC(=O)[C@H](CO)NC(=O)[C@H](Cc1c[nH]cn1)NC(=O)[C@H](CCCNC(=N)N)NC(=O)[C@H](CC(C)C)NC(=O)[C@H](Cc1ccccc1)NC(=O)[C@H](CCC(=O)O)NC(=O)[C@H](C)NC(=O)[C@H](CC(C)C)NC(=O)[C@H](CCCNC(=N)N)NC(=O)[C@H](CCC(N)=O)NC(=O)[C@@H](NC(=O)[C@H](C)NC(=O)[C@@H]1CSSC[C@H](NC(=O)[C@@H](N)CCCCNC(=O)CC[C@H](NC(=O)CC[C@H](NC(=O)CCCCCCCCCCCCCCCCCCC(=O)O)C(=O)O)C(=O)O)C(=O)N[C@@H](CC(N)=O)C(=O)N[C@@H]([C@@H](C)O)C(=O)N[C@@H](C)C(=O)N[C@@H]([C@@H](C)O)C(=O)N1)[C@@H](C)O)C(=O)N1CCC[C@H]1C(=O)N[C@@H](CO)C(=O)N[C@@H](CO)C(=O)N[C@H](C(=O)N[C@@H](CC(N)=O)C(=O)N[C@H](C(=O)NCC(=O)N1CCC[C@H]1C(=O)N[C@@H](CCC(=O)O)C(=O)N[C@H](C(=O)N1CCC[C@H]1C(N)=O)[C@@H](C)O)C(C)C)[C@@H](C)O [Example 125] (H-K([γGlu-γGlu-C20 diacid])CNTATCATQRLAEFLRHSSPNFGAIPSSTNVGPETP-NH2; disulfide 2-7 (inferred); N-terminus assumed)	0.8	0.8	0.8	0.4	–	–	–	0.4	0.4	–	0.152 nM	10.6	10.6	–	1.61 nM	0.8
